Results on 24 molecules are retold here after patent US20200405697A1, “Antitumor Agent” (Taiho Pharmaceutical Co., Ltd, priority 2017, published 2020).

The target in the test is T1, human RNR (histidine tagged human M1 and human M2 proteins) (Homo sapiens, UniProt P23921).
T1 construct: made in house; host or cells: Escherichia coli
T1 sequence (P23921 1-792): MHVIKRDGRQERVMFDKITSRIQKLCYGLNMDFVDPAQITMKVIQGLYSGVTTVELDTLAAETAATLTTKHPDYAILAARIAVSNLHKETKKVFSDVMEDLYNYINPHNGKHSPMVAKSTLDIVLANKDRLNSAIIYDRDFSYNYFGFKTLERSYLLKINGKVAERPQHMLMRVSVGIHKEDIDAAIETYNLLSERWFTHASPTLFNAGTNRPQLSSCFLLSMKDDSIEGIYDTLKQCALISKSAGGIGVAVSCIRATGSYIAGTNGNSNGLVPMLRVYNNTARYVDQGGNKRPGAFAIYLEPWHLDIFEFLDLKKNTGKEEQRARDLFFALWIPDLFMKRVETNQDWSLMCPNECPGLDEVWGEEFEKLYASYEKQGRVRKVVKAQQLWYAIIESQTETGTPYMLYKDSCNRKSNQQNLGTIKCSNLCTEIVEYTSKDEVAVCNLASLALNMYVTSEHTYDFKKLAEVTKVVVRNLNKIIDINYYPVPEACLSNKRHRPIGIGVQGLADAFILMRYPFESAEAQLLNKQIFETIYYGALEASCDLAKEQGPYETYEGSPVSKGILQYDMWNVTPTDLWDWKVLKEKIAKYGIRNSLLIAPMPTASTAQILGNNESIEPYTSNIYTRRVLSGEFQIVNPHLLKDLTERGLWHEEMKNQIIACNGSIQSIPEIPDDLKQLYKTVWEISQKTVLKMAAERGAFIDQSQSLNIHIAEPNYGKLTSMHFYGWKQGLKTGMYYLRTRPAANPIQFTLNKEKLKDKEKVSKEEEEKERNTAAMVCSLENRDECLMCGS
Briefly: Human RNR inhibition effect (dCDP formation from CDP). Particulars: 10 μM CDP, 37° C. for 30 minutes, read-out: RNR inhibitory activity IC50. It counts as biochemical. Put shortly: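 His-tagged human M1 (isoform 1) and N-terminal 59-aa-truncated M2 (isoform 2), E. coli-expressed, Ni-purified, preincubated 20 min with compound (1% DMSO). Reaction with 10 μM CDP, 2 mM ATP, 0.24 mM NADPH, 6 mM DTT, 4 mM Mg acetate, 100 mM KCl, 50 mM HEPES pH 7.2, 30 min at 37° C. dCDP formed quantified by reverse-phase HPLC after heat stop.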

Turning to `Cc1ccc(F)c([C@@H](C)[C@H](NS(=O)(=O)c2cc(C(C)(C)O)c(Cl)cc2C(N)=O)c2n[nH]c(=O)o2)c1C` [Example 198, 5-chloro-2-(N-((1S,2R)-2-(6-fluoro-2,3-dimethylphenyl)-1-(5-oxo-4,5-dihydro-1,3,4-oxadiazol-2-yl)propyl)sulfamoyl)-4-(2-hydroxypropan-2-yl)benzamide], the IC50 was 0.06 µM.
The figure for `Cc1ccc(F)c([C@@H](C)[C@H](NS(=O)(=O)c2ccc(Cl)c(C(=O)N3C4CCC3COC4)n2)c2n[nH]c(=O)o2)c1C` [Example 116, 6-(3-oxa-8-azabicyclo[3.2.1]octane-8-carbonyl)-5-chloro-N-((1S,2R)-2-(6-fluoro-2,3-dimethylphenyl)-1-(5-oxo-4,5-dihydro-1,3,4-oxadiazol-2-yl)propyl)pyridine-2-sulfonamide] is 0.07 µM.
Then `Cc1ccc(F)c([C@@H](C)[C@H](NS(=O)(=O)c2ccc(Cl)c(-c3nnn[nH]3)c2)c2n[nH]c(=O)o2)c1C` [Example 161, 4-chloro-N-((1S,2R)-2-(6-fluoro-2,3-dimethylphenyl)-1-(5-oxo-4,5-dihydro-1,3,4-oxadiazol-2-yl)propyl)-3-(1H-tetrazol-5-yl)benzenesulfonamide], with 0.28 µM; and `COc1cc(Cl)ccc1S(=O)(=O)N[C@H](c1n[nH]c(=O)o1)[C@H](C)c1c(F)ccc(-c2cn(C)nc2C)c1C` [Example 317, 4-chloro-N-((1S,2R)-2-(3-(1,3-dimethyl-1H-pyrazol-4-yl)-6-fluoro-2-methylphenyl)-1-(5-oxo-4,5-dihydro-1,3,4-oxadiazol-2-yl)propyl)-2-methoxybenzenesulfonamide], with 0.28 µM; and `CC(=O)OC1(C(F)(F)F)CCOc2c(S(=O)(=O)N[C@H](c3n[nH]c(=O)o3)[C@H](C)c3c(F)ccc(C)c3C)ccc(Cl)c21` (stereo partly drawn) [Example 123, 5-chloro-8-(N-((1S,2R)-2-(6-fluoro-2,3-dimethylphenyl)-1-(5-oxo-4,5-dihydro-1,3,4-oxadiazol-2-yl)propyl)sulfamoyl)-4-(trifluoromethyl)chroman-4-ylacetate], with 0.11 µM.
The figure for `Cc1ccc(S(=O)(=O)N[C@H](c2n[nH]c(=O)o2)[C@H](C)c2c(F)ccc3ccccc23)c(C(N)=O)c1` [Example 12, 2-(N-((1S,2R)-2-(2-Fluoronaphthalen-1-yl)-1-(5-oxo-4,5-dihydro-1,3,4-oxadiazol-2-yl)propyl)sulfamoyl)-5-methylbenzamide] is 0.17 µM; for `Cc1c(Cl)ccc(F)c1[C@@H](C)[C@H](NS(=O)(=O)c1ccc(F)c2c1OCCC2(C)O)c1n[nH]c(=O)o1` (single isomer, unassigned) [Example 229A] it is 0.06 µM; for `COc1cc(Cl)ccc1S(=O)(=O)N[C@H](c1n[nH]c(=O)o1)[C@H](C)c1c(F)ccc(-c2ccc(N3CCOCC3)nc2)c1C` [Example 315, 4-chloro-N-((1S,2R)-2-(6-fluoro-2-methyl-3-(6-morpholinopyridin-3-yl)phenyl)-1-(5-oxo-4,5-dihydro-1,3,4-oxadiazol-2-yl)propyl)-2-methoxybenzenesulfonamide] it is 0.19 µM.
On to `Cc1c(Cl)ccc(F)c1[C@@H](C)[C@H](NS(=O)(=O)c1ncc(Cl)cc1C(N)=O)c1n[nH]c(=O)o1` [Example 249, 5-chloro-2-(N-((1S,2R)-2-(3-chloro-6-fluoro-2-methylphenyl)-1-(5-oxo-4,5-dihydro-1,3,4-oxadiazol-2-yl)propyl)sulfamoyl)nitotinamide], for which the IC50 came out at 0.1 µM.
Then `Cc1ccc(F)c([C@@H](C)[C@H](NS(=O)(=O)c2cccc3c2OC(C)(C)CC3O)c2n[nH]c(=O)o2)c1C` (single isomer, unassigned) [Example 237A], with 0.29 µM; and `Cc1c(Br)ccc(F)c1[C@@H](C)[C@H](NS(=O)(=O)c1ccc(Cl)c2c1OCCC2O)c1n[nH]c(=O)o1` (single isomer, unassigned) [Example 243B], with 0.1 µM.
In the case of `CNC(=O)c1cc(Br)cnc1S(=O)(=O)N[C@H](c1n[nH]c(=O)o1)[C@H](C)c1c(F)ccc(C)c1C` [Example 251, 5-bromo-2-(N-((1S,2R)-2-(6-fluoro-2,3-dimethylphenyl)-1-(5-oxo-4,5-dihydro-1,3,4-oxadiazol-2-yl)propyl)sulfamoyl)-N-methylnicotinamide], the concentration for half-maximal inhibition (IC50) came out at 0.25 µM.
The figure for `Cc1ccc(F)c([C@@H](C)[C@H](NS(=O)(=O)c2ccc(Cl)cc2C(N)=O)c2n[nH]c(=O)o2)c1` [Example 21, 5-chloro-2-(N-((1S,2R)-2-(2-fluoro-5-methylphenyl)-1-(5-oxo-4,5-dihydro-1,3,4-oxadiazol-2-yl)propyl)sulfamoyl)benzamide] is 0.24 µM.
For `CCc1c(C)cccc1[C@@H](C)[C@H](NS(=O)(=O)c1ccc(Cl)cc1OC)c1n[nH]c(=O)o1` [Example 87, 4-chloro-N-((1S,2R)-2-(2-ethyl-3-methylphenyl)-1-(5-oxo-4,5-dihydro-1,3,4-oxadiazol-2-yl)propyl)-2-methoxybenzenesulfonamide], the IC50 came out at 0.84 µM.
Then `Cc1ccc(F)c([C@@H](C)[C@H](NS(=O)(=O)c2cc3c(cc2C(=O)O)OCCO3)c2n[nH]c(=O)o2)c1C` [Example 223, 7-(N-((1S,2R)-2-(6-fluoro-2,3-dimethylphenyl)-1-(5-oxo-4,5-dihydro-1,3,4-oxadiazol-2-yl)propyl)sulfamoyl)-2,3-dihydrobenzo[b][1,4]dioxin-6-Carboxylic Acid], with 0.79 µM; and `COc1nc(Cl)ccc1S(=O)(=O)N[C@H](c1n[nH]c(=O)o1)[C@H](C)c1c(F)ccc(C)c1C` [Example 148, 6-chloro-N-((1S,2R)-2-(6-fluoro-2,3-dimethylphenyl)-1-(5-oxo-4,5-dihydro-1,3,4-oxadiazol-2-yl)propyl)-2-methoxypyridine-3-sulfonamide], with 0.1 µM; and `Cc1c(Br)ccc(F)c1[C@@H](C)[C@H](NS(=O)(=O)c1ccc(Cl)c2c1OCCC2(C)O)c1n[nH]c(=O)o1` (single isomer, unassigned) [Example 222B], with 0.06 µM.
Then `Cc1ccc(F)c([C@@H](C)[C@H](NS(=O)(=O)c2ccc(Cl)c3c2OCC(=O)N3CC(F)F)c2n[nH]c(=O)o2)c1C` [Example 101, 5-chloro-4-(2,2-difluoroethyl)-N-((1S,2R)-2-(6-fluoro-2,3-dimethylphenyl)-1-(5-oxo-4,5-dihydro-1,3,4-oxadiazol-2-yl)propyl)-3-oxo-3,4-dihydro-2H-benzo[b][1,4]oxazine-8-sulfonamide], with 0.13 µM.
Then `Cc1ccc(F)c([C@@H](C)[C@H](NS(=O)(=O)c2ccc(Cl)c3c2OCCC3(O)C(F)(F)F)c2n[nH]c(=O)o2)c1C` (single isomer, unassigned) [Example 220A], with 0.06 µM; and `Cc1ccc(F)c([C@@H](C)[C@H](NS(=O)(=O)c2c(F)cc(Cl)cc2C(N)=O)c2n[nH]c(=O)o2)c1C` [Example 258, 5-chloro-3-fluoro-2-(N-((1S,2R)-2-(6-fluoro-2,3-dimethylphenyl)-1-(5-oxo-4,5-dihydro-1,3,4-oxadiazol-2-yl)propyl)sulfamoyl)benzamide], with 0.14 µM; and `COc1cc(Cl)cnc1S(=O)(=O)N[C@H](c1n[nH]c(=O)o1)[C@H](C)c1c(F)ccc(C)c1C` [Example 112, 5-chloro-N-((1S,2R)-2-(6-fluoro-2,3-dimethylphenyl)-1-(5-oxo-4,5-dihydro-1,3,4-oxadiazol-2-yl)propyl)-3-methoxypyridine-2-sulfonamide], with 0.15 µM.
On to `Cc1ccc(F)c([C@@H](C)[C@H](NS(=O)(=O)c2cc(C(C)(C)O)ccc2C(N)=O)c2n[nH]c(=O)o2)c1C` [Example 197, 2-(N-((1S,2R)-2-(6-fluoro-2,3-dimethylphenyl)-1-(5-oxo-4,5-dihydro-1,3,4-oxadiazol-2-yl)propyl)sulfamoyl)-4-(2-hydroxypropan-2-yl)benzamide], for which the IC50 stood at 0.06 µM.
The figure for `Cc1ccc(S(=O)(=O)N[C@H](c2n[nH]c(=O)o2)[C@H](C)c2c(F)ccc(C)c2C)cc1S(=O)(=O)N1CCCCC1` [Example 171, N-((1S,2R)-2-(6-fluoro-2,3-dimethylphenyl)-1-(5-oxo-4,5-dihydro-1,3,4-oxadiazol-2-yl)propyl)-4-methyl-3-(piperidin-1-ylsulfonyl)benzenesulfonamide] is 0.47 µM.
Then `Cc1c(Cl)ccc(F)c1[C@@H](C)[C@H](NS(=O)(=O)c1ccc(Cl)c2c1OCCC2(C)N)c1n[nH]c(=O)o1` (mixture of isomers) [Example 328, 4-amino-5-chloro-N-((1S,2R)-2-(3-chloro-6-fluoro-2-methylphenyl)-1-(5-oxo-4,5-dihydro-1,3,4-oxadiazol-2-yl)propyl)-4-methylchroman-8-sulfonamide], with 0.11 µM.
